The first assay has as its target T1, endogenous CETP from serum (Homo sapiens, UniProt P11597).
T1 construct: yielding a concentration of approximately 15 nM endogenous CETP in the assay; from tissue; host or cells: human serum
T1 sequence (P11597 18-493): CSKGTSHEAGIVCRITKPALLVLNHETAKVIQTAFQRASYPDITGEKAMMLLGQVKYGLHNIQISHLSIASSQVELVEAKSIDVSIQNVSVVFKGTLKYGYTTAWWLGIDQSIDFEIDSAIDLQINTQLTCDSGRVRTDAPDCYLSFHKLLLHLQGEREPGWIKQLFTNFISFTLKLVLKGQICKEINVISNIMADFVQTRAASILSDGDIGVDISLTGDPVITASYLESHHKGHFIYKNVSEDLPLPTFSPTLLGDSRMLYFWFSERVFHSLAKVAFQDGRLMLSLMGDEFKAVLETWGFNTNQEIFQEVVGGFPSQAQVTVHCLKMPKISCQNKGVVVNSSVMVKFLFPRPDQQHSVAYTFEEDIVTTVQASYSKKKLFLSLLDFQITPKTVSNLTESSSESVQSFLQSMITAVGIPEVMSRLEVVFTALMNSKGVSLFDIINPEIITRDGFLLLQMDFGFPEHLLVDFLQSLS
Put plainly: RTA assay in 95% human serum (in vitro radioactive assay of CETP-catalyzed CE and TG transfer). The class given is biochemical. Particulars: RTA assay in 95% human serum, endogenous CETP; read-out: RTA (95% HS). The text has this:
In Vitro Radioactive Assays of CETP-Catalyzed CE and TG Transfer (RTA Assay)
Reagents and sources are: [3H] cholesteryl oleate (GE #TRK.886), [3H] Triolein (Perkin-Elmer NET-431), Butylated hydroxyl toluene (Aldrich, #D4740-4), DOPC (Sigma, # P6354), Sodium Bromide (Fisher scientific #S255-500), PEG 8000 (Fisher, #BP233-1), and human HDL (Intracel Corp #RP-036).
Both assays measure the transfer of [3H] cholesteryl oleate or [3H] triolein from exogenous LDL to HDL.
Radiolabeled donor particles are generated by first combining 100 μl of 200 μM butylated hydroxyl toluene in CHCl3, 216 μL of 21.57 mM DOPC in EtOH, and either 500 μCi [3H]-triolein (Perkin Elmer #NET-431) or 500 μCi [3H]-cholesteryl oleate (GE #TRK886) in a glass tube. Reagents are mixed, dried under nitrogen, and then resuspended in 2 mL of 50 mM Tris, 27 μM EDTA at pH 7.4. After a brief vortex, the solution is sonicated until clear and mixed with 20 mL of fresh human serum. The mixture is incubated overnight at 37° C. The [3H] labeled LDL substrate is separated at 1.063 g/ml density by sequential ultracentrifugal flotation in NaBr according to the method of Havel, Eder, et al., 1955, and Chapman, Goldstein, et al., 1981. Once isolated the particles are dialyzed 3× in CETP buffer (50 mM Tris, pH 7.4, 100 mM NaCl, 1 mM EDTA). Human HDL is purchased from Intracel and used as the acceptor particles.
Transfer assays are performed in a 96-well v-bottom polypropylene plate. For the RTA using recombinant CETP (2% RTA), an assay cocktail is prepared with the final concentrations 128 μg/mL HDL, 20 nM rCETP, 2% human serum, and 1×CETP buffer. 1 μL of each test compound diluted in DMSO is added to 47 μL of assay cocktail per well and incubated at 37° C. for 1 hour. To initiate the transfer reaction, 2 μL radiolabeled LDL is added. After an additional 60 min of incubation at 37° C., the transfer action is terminated by precipitation of LDL with an equal volume of 20% WN PEG 8000. The plates are centrifuged at 2000 rpm for 30 minutes at 4° C. A 40 μL aliquot of the HDL-containing supernatant is transferred to a Packard Optiplate™ with 200 μL of MicroScint™ 20. After mixing, plates are counted by liquid scintillation. Counts present in the supernatant for blanks (wells containing only HDL acceptor, CETP buffer and DMSO) are subtracted from those containing test compounds and used to correct for non-specific transfer.
This is then combined with HDL and CETP buffer and the reaction proceeds as above and is terminated as described.
Comparison of the counts of samples with inhibitors to an uninhibited (DMSO only) positive control yield a percent inhibition. A plot of percent inhibition vs. log of inhibitor concentration, fit to a Sigmoidal 4 parameter equation is used to calculate IC50.
Starting materials are commercially available or are made using known procedures or as shown below. The examples may be synthesized according to the general schemes provided below and by using the synthetic intermediates that are described. […] When compounds of Formula I are mentioned herein, such compounds include compounds defined generically by Formula I and also the specific examples disclosed herein.
`COc1ccc(C2CCC(C(=O)O)CC2)cc1-c1ccc(C(F)(F)F)cc1[C@@H]1CC[C@H]2[C@@H](c3cc(C(F)(F)F)cc(C(F)(F)F)c3)NC(=O)N12` (stereo partly drawn) [Example 3, 4-(2′-((1R,5 S,7aS)-1-(3,5-bis(trifluoromethyl)phenyl)-3-oxohexahydro-1H-pyrrolo[1,2-c]imidazol-5-yl)-6-methoxy-4′-(trifluoromethyl)-[1,1′-biphenyl]-3-yl)cyclohexanecarboxylic acid]: the IC50 worked out at 1730 nM.

For the molecule `COc1ncc(-c2ccc(C(=O)O)cc2C)cc1-c1ccc(C(F)(F)F)cc1[C@@H]1CC[C@H]2[C@@H](c3cc(C(F)(F)F)cc(C(F)(F)F)c3)NC(=O)N12` [Example 1, 4-(5-(2-((1R,5 S,7aS)-1-(3,5-bis(trifluoromethyl)phenyl)-3-oxohexahydro-1H-pyrrolo[1,2-c]imidazol-5-yl)-4-(trifluoromethyl)phenyl)-6-methoxypyridin-3-yl)-3-methylbenzoic acid], the IC50 was determined as 335 nM.

The same assay, now with this note: Table 1; data generally obtained using the RTA assay in 95% human serum; read-out: IC50.
As for `COc1ccc(-c2ccc(C(=O)O)nc2C)cc1-c1ccc(C(F)(F)F)cc1[C@@H]1CC[C@H]2[C@@H](c3cc(C(F)(F)F)cc(C(F)(F)F)c3)NC(=O)N12` [Example 14, 5-[2′-{(1R,5S,7aS)-1-[3,5-bis(trifluoromethyl)phenyl]-3-oxohexahydro-1H-pyrrolo[1,2-c]imidazol-5-yl}-methoxy-4′-(trifluoromethyl)biphenyl-3-yl]-6-methylpyridine-2-carboxylic acid], the IC50 is 1930 nM.

On to `COc1ncc(-c2ccc(C(=O)O)cc2C)cc1-c1ccc(C(F)(F)F)cc1[C@@H]1CC[C@H]2[C@@H](c3cc(C(F)(F)F)cc(C(F)(F)F)c3)N(C)C(=O)N12` [Example 4, 4-{5-[2-{(1R,5S,7aS)-1-[3,5-bis(trifluoromethyl)phenyl]-2-methyl-3-oxohexahydro-1H-pyrrolo[1,2-c]imidazol-5-yl}-4-(trifluoromethyl)phenyl]-6-methoxypyridin-3-yl}-3-methylbenzoic acid], for which the IC50 was 1500 nM.

Regarding `COc1ccc(-c2ccc(C(=O)O)cc2C)cc1-c1ccc(C(F)(F)F)cc1[C@@H]1CC[C@H]2[C@@H](c3cc(C(F)(F)F)cc(C(F)(F)F)c3)NC(=O)N12` [Example 9], the IC50 is 1360 nM.

Take `COc1ccc(-c2ccc(C(=O)O)cc2C)cc1-c1ccc(C(F)(F)F)cc1[C@@H]1CC[C@H]2[C@@H](c3cc(C(F)(F)F)cc(C(F)(F)F)c3)N(C)C(=O)N12` [Example 12, 2″-{(1R,5S,7aS)-1-[3,5-bis(trifluoromethyl)phenyl]-2-methyl-3-oxohexahydro-1H-pyrrolo[1,2-c]imidazol-5-yl}-4′-methoxy-2-methyl-4″-(trifluoromethyl)-l,1′:3′,l″-terphenyl-4-carboxylic acid]: the IC50 was 1420 nM.

Take `COc1ccc(CCC(=O)O)cc1-c1ccc(C(F)(F)F)cc1[C@@H]1CC[C@H]2[C@@H](c3cc(F)cc(C(F)(F)F)c3)NC(=O)N12` [Example 17, 3-[2′-{(1R,5S,7aS)-1-[3-fluoro-5-(trifluoromethyl)phenyl]-3-oxohexahydro-1H-pyrrolo[1,2-c]imidazol-5-yl}-6-methoxy-4′-(trifluoromethyl)biphenyl-3-yl]propanoic acid]: the IC50 was found to be 3160 nM.

On to `COc1ccc(-c2ccc(C(=O)O)cc2C)cc1-c1ccc(C(F)(F)F)cc1[C@@H]1CC[C@H]2[C@@H](c3ccnc(C(F)(F)F)c3)NC(=O)N12` [Example 19, 4′-methoxy-2-methyl-2″-{(1R,5S,7aS)-3-oxo-1-[2-(trifluoromethyl)pyridin-4-yl]hexahydro-1H-pyrrolo[1,2-c]imidazol-5-yl}-4″-(trifluoromethyl)-1,1′:3′,1″-terphenyl-4-carboxylic acid], for which the IC50 is 4870 nM.

On to `COc1ccc(CCC(=O)O)cc1-c1ccc(C(F)(F)F)cc1[C@@H]1CC[C@H]2[C@@H](c3cc(F)cc(C(F)(F)F)c3)NS(=O)(=O)N12` [Example 25, 3-[2′-{(3R,3aS,6S)-3-[3-fluoro-5-(trifluoromethyl)phenyl]-1,1-dioxidohexahydropyrrolo[1,2-b][1,2,5]thiadiazol-6-yl}-6-methoxy-4′-(trifluoromethyl)biphenyl-3-yl]propanoic acid], for which the IC50 is 3120 nM.

As for `COc1ccc(-c2ccc(C(=O)O)cc2C)cc1-c1ccc(C(F)(F)F)cc1[C@@H]1CC[C@H]2[C@@H](c3cc(C(F)(F)F)cc(C(F)(F)F)c3)NS(=O)(=O)N12` [Example 22, 2″-{(3R,3aS,6S)-3-[3,5-bis(trifluoromethyl)phenyl]-1,1-dioxidohexahydropyrrolo[1,2-b][1,2,5]thiadiazol-6-yl}-4′-methoxy-2-methyl-4″-(trifluoromethyl)-1,1′,:3′,1″-terphenyl-4-carboxylic acid], the IC50 stood at 984 nM.

As to `COc1ccc(CCC(=O)O)cc1-c1ccc(C(F)(F)F)cc1[C@@H]1CC[C@H]2[C@@H](c3cc(C(F)(F)F)cc(C(F)(F)F)c3)NC(=O)N12` [Example 7, 3-[2′-{(1R,5S,7aS)-1-[3,5-bis(trifluoromethyl)phenyl]-3-oxohexahydro-1H-pyrrolo[1,2-c]imidazol-5-yl}-6-methoxy-4′-(trifluoromethyl)biphenyl-3-yl]propanoic acid], the IC50 came out at 1200 nM.

With `COc1cc(F)c(C(C)C)cc1-c1ccc(C(F)(F)F)cc1[C@@H]1CC[C@H]2[C@@H](c3cc(F)cc(C(F)(F)F)c3)NC(=O)N12` [Example 6], the IC50 amounted to 1070 nM.

For the molecule `COc1ccc(C2CCC(C(=O)O)CC2)cc1-c1ccc(C(F)(F)F)cc1[C@@H]1CC[C@H]2[C@@H](c3cc(C(F)(F)F)cc(C(F)(F)F)c3)NS(=O)(=O)N12` (stereo partly drawn) [Example 23, 4-[2′-{(3R,3aS,6S)-3-[3,5-bis(trifluoromethyl)phenyl]-1,1-dioxidohexahydropyrrolo[1,2-b][1,2,5]thiadiazol-6-yl}-6-methoxy-4′-(trifluoromethyl)biphenyl-3-yl]cyclohexanecarboxylic acid], the IC50 came to 268 nM.

In the case of `COc1ccc(-c2ccc(C(=O)O)cc2C)cc1-c1cnc(C(F)(F)F)cc1[C@@H]1CC[C@H]2[C@@H](c3cc(C(F)(F)F)cc(C(F)(F)F)c3)NC(=O)N12` [Example 20, 3′-[4-{(1R,5S,7aS)-1-[3,5-bis(trifluoromethyl)phenyl]-3-oxohexahydro-1H-pyrrolo[1,2-c]imidazol-5-yl}-6-(trifluoromethyl)pyridin-3-yl]-4′-methoxy-2-methylbiphenyl-4-carboxylic acid], the IC50 came to 1570 nM.

As to `COc1ncc(-c2c(C)cc(C(=O)O)cc2C)cc1-c1ccc(C(F)(F)F)cc1[C@@H]1CC[C@H]2[C@@H](c3cc(C(F)(F)F)cc(C(F)(F)F)c3)NC(=O)N12` [Example 5, 4-{5-[2-{(1R,5S,7aS)-1-[3,5-bis(trifluoromethyl)phenyl]-3-oxohexahydro-1H-pyrrolo[1,2-c]imidazol-5-yl}-4-(trifluoromethyl)phenyl]-6-methoxypyridin-3-yl}-3,5-dimethylbenzoic acid], the IC50 was determined as 392 nM.

(Values after US9981970B2, “Bicyclic ureas and thiadiazolidine-1, 1-dioxides as CETP inhibitors” (Merck Sharp & Dohme Corp., priority 2013, dated 2018).)
